According to patent US9901579B2, “Compositions comprising phosphodiesterase inhibitors for use in the treatment of a solid tumor in a human patient” (Sartar Therapeutics Ltd, priority 2013, dated 2018):
Counter-ions that a name gives are not always drawn.

Tests used:
Assay type in all cases: cell-based, human
[1] = system: GIST cell cultures (GIST48 and GIST882); experiment: xCELLigence System / RTCA DP proliferation analysis; conditions: 10 μmol/L or higher concentration
Text: Four different PDE3-inhibitors were used to block the activity of PDE3 enzymes and two kinase-inhibitors to block the activity of KIT and PDGFRA. Cilostazol, milrinone and amrinone were purchased from Sigma (St Louis, Mo., USA) and anagrelide hydrochloride was purchased from Tocris Bioscience (Bristol, UK). […] All other inhibitors were reconstituted in DMSO. In a preliminary analysis, multiple drug concentrations (from 0 to 100 μmol/L) were used to identify effective PDE3 inhibitor doses in the GIST cell lines. Effects on proliferation were analysed using xCELLigence System and the RTCA DP instrument (Acea Biosciences, San Diego, Calif., USA). […] Cell progression to apoptosis after anagrelide hydrochloride treatment was analysed in eight duplicate wells with a Click-iT TUNEL Alexa Fluor 488 Imaging Assay (Invitrogen, Carlsbad, Calif., USA) according to the manufacturer's instructions. Progression to apoptosis was measured after 48 hours and after 96 hours of drug treatments. Cell proliferation was examined by the MTT assay (Roche Diagnostics, Indianapolis, Ind., USA) and the xCELLigence System using the RTCA DP instrument (Acea Biosciences). […] At the end of the incubation, cell proliferation was analyzed from eight duplicate wells by adding 10 μL of the MTT reagent into each well and incubating at 37° C. for four hour. The plates were read with a Multiscan EX Microplate photometer (Thermo Scientific, Rockford, Ill., USA) at the wavelength of 540 nm. For the xCELLigence proliferation assay GIST48 and GIST882 cells were plated at a density of 2.5×10^4 cells/well. Before plating GIST882 cells, the wells were thin coated with Collagen I Rat Tail (Invitrogen, Carlsbad, Calif., USA) according to the manufacturer's instructions using 7.5 μg/mL final collagen concentration.

GIST882 cells [2] = experiment: MTT cell proliferation assay, GIST882; conditions: 10 μmol/L, 96 hours (four day culture)
Experimental: (§1) GIST882 is a primary human GIST cell line with a homozygous missense mutation in KIT exon 13, encoding a […] mutant KIT oncoprotein (Tuveson, D. A. 2001). […] GIST48 has a primary exon 11 missense mutation and a secondary exon 17 missense mutation (Bauer, S. 2006). LPS141 is a liposarcoma cell line that is established from patient derived de-differentiated liposarcoma (Snyder, E. L. 2009). The cell lines were cultured in a RPMI 1640 medium (GIBCO, California USA) supplemented with 20% fetal bovine serum (FBS) and 2% penicillin/streptomycin. Four different PDE3-inhibitors were used to block the activity of PDE3 enzymes and two kinase-inhibitors to block the activity of KIT and PDGFRA. […] Effects on proliferation were analysed using xCELLigence System and the RTCA DP instrument (Acea Biosciences, San Diego, Calif., USA). […] Cell progression to apoptosis after anagrelide hydrochloride treatment was analysed in eight duplicate wells with a Click-iT TUNEL Alexa Fluor 488 Imaging Assay (Invitrogen, Carlsbad, Calif., USA) according to the manufacturer's instructions. Progression to apoptosis was measured after 48 hours and after 96 hours of drug treatments. […] At the end of the incubation, cell proliferation was analyzed from eight duplicate wells by adding 10 μL of the MTT reagent into each well and incubating at 37° C. for four hour. […]

[3] = system: LPS141 liposarcoma cell line; experiment: MTT cell proliferation assay, LPS141; conditions: 10 μmol/L, 96 hours (four day culture)
Experimental: as §1

GIST48 cells = experiment: Click-iT TUNEL apoptosis assay, GIST48; conditions: for apoptotic GIST48 cells: anagrelide hydrochloride 10 μmol/L, imatinib 0.5 μmol/L
Experimental: (§2) GIST882 is a primary human GIST cell line with a homozygous missense mutation in KIT exon 13, encoding a […] mutant KIT oncoprotein (Tuveson, D. A. 2001). […] GIST48 has a primary exon 11 missense mutation and a secondary exon 17 missense mutation (Bauer, S. 2006). LPS141 is a liposarcoma cell line that is established from patient derived de-differentiated liposarcoma (Snyder, E. L. 2009). The cell lines were cultured in a RPMI 1640 medium (GIBCO, California USA) supplemented with 20% fetal bovine serum (FBS) and 2% penicillin/streptomycin. Four different PDE3-inhibitors were used to block the activity of PDE3 enzymes and two kinase-inhibitors to block the activity of KIT and PDGFRA. Cilostazol, milrinone and amrinone were purchased from Sigma (St Louis, Mo., USA) and anagrelide hydrochloride was purchased from Tocris Bioscience (Bristol, UK). […] All other inhibitors were reconstituted in DMSO. […] Effects on proliferation were analysed using xCELLigence System and the RTCA DP instrument (Acea Biosciences, San Diego, Calif., USA). […] Cell progression to apoptosis after anagrelide hydrochloride treatment was analysed in eight duplicate wells with a Click-iT TUNEL Alexa Fluor 488 Imaging Assay (Invitrogen, Carlsbad, Calif., USA) according to the manufacturer's instructions. Progression to apoptosis was measured after 48 hours and after 96 hours of drug treatments.

GIST882 cells [4] = experiment: Click-iT TUNEL apoptosis assay, GIST882; conditions: anagrelide hydrochloride 10 μmol/L, imatinib 0.5 μmol/L
Experimental: as §2

For `Nc1cc(-c2ccncc2)c[nH]c1=O` [amrinone], the “anti-proliferative effect on GIST cell cultures” value (“anti-proliferative effect” below) [1] was “some anti-proliferative effect”.

For `O=C1CN2Cc3c(ccc(Cl)c3Cl)N=C2N1` [anagrelide hydrochloride, 6,7-dichloro-1,5-dihydroimidazo[2,1-b]quinazolin-2(3H)-one], the “anti-proliferative effect” value [1] was “some anti-proliferative effect”, the “effect on GIST882 cell growth in comparison with DMSO” value (GIST882 cells [2]) was “the only PDE3 inhibitor that had an effect” and the “effect on LPS141 cell growth in comparison with DMSO” value [3] was “the only PDE3 inhibitor that had an effect”. For the same compound, the “apoptotic GIST48 cells” value (GIST48 cells; after 48 hours) was 0.6%, the “apoptotic GIST48 cells” value (GIST48 cells; after 96 hours) was 1% and the “DNA fragmentation in GIST48 cells” value (GIST48 cells; anagrelide hydrochloride treatment) was “only slight DNA fragmentation”. The “apoptotic GIST882 cells” value (GIST882 cells [4]; after 48 hours) was 22% and the “apoptotic GIST882 cells” value (GIST882 cells [4]; after 96 hours) was 47%.

With `O=C1CCc2cc(OCCCCc3nnnn3C3CCCCC3)ccc2N1` [cilostazol] the “anti-proliferative effect” value [1] was “did not influence cell proliferation”.

`Cc1[nH]c(=O)c(C#N)cc1-c1ccncc1` [milrinone] was tested, and the “anti-proliferative effect” value [1] was “did not influence cell proliferation”.
